We go through 2 compounds from patent US20140057895A1, “INDAZOLE- AND PYRROLOPYRIDINE-DERIVATIVE AND PHARMACEUTICAL USE THEREOF” (priority 2011, published 2014).

For assay [1], the target named is T1, 5-HT4 receptor (Cavia porcellus, UniProt O70528).
T1 construct: striatum was isolated which was cryopreserved at −80° C. until use; from tissue; host or cells: guinea pig (Slc-Hartley) striatum membranes
Briefly: Test Example 1: Serotonin 4 (5-HT4) receptor binding assay, [3H]-GR113808, guinea pig striatum membranes (Table 96). The note with it: Guinea pig 5-HT4 receptor binding assay, [3H]-GR113808, striatum membranes; mean value of each group.

Assay [2] has as its system scopolamine-induced cognitive impairment. Briefly: Example 5: Y-maze test, scopolamine-induced cognitive impairment, single-agent administration (Table 101). The format is in vivo, ddY mouse. The conditions noted are these: p.o., scopolamine-treated, # = P<0.05 vs scopolamine group. From the text: Thus, scopolamine-induced cognitive impairment model, one of the AD-like model, has been used to predict pharmacodynamic signals of putative procognitive compounds, utilizing the acetylcholinesterase inhibitor donepezil for illustration (See, Citations 1 and 2). The present inventors investigated the effect of each compound on reversal of scopolamine-induced deficits in performance of Y-maze test in mice, and they also investigated adjunctive effect of compounds with donepezil on reversal of deficits induced by scopolamine and MK801 in mice.
Used animal: ddY mouse (SLC)
In the experiments, the mice were grouped in the same way using Stat Preclinica (Version 1.03295; Takumi Information Technology Inc.). The selected mice were divided into 5 to 7 groups of 7 to 12 mice using the “completely randomization design by the single variable” program (Analytical program version 1.0.7), with body weight on the testing day. After grouping, p values for Bartlett's test and ANOVA across all groups were greater than 0.2, indicating no significant difference in this parameter among the groups.
The required amount of each compound was weighed and put into a glass homogenizer. […]
The required amount of scopolamine and MK801 were weighed, and saline was added to it to give 0.3 mg/mL and 0.015 mg/mL solution, respectively.
90 Min before the test, the mice were orally administered each compound, donepezil, and vehicle (0.5% methyl cellulose, 10 mL/kg). After 60 min, memory impairment was induced by administering scopolamine (0.6 mg/kg, s.c.) with (co-administration) or without (mono-administration) MK801 (0.03 mg/kg, s.c.). The control group received saline (2 mL/kg, s.c.) rather than scopolamine and MK801.
The Y-maze used herein is a three-arm maze with equal angles between all arms. The mazefloor and walls were constructed from black acrylic resin. The mice were initially placed within one arm, and the sequence and number of arm entries were recorded manually for each mouse over an 8-min period.
Data were processed and analyzed with Microsoft® Office Excel 2003. The alternation behavior was defined as entries into all three arms on consecutive occasions. The percent alternation behavior in each animal was calculated using the following formula, and rounded to one decimal place.
Alternation behavior(%)=[actual alternation/(total arm entries−2)]×100
Restoration ratio of alternation behavior (%) in each animal was calculated using the following formula, and rounded to one decimal place.
Restoration ratio of alternation behavior in each animal (%)=y Alternation behavior in each animal (%)=x Mean of alternation behavior in vehicle-treated group (group No. 1) (%)=A Mean of alternation behavior in scopolamine-treated group (group No. 2) (%)=B
Data were expressed as the mean of the percent alternation behavior, the number of total arm entries and the restoration ratio of alternation behavior.
Values of Y-maze tests are expressed as mean of alternation behavior (n=7−12).
Alternation behaviors in the scopolamine-treated groups were compared to those in the control groups using Wilcoxon rank sum test (Stat preclinical; Version 1.03295; Takumi Information Technology Inc.) with a two-sided significance level of 0.05.
Restoration of alternation behavior was analyzed using Stat Preclinica. Alternation behaviors in the vehicle-treated group were compared to those in the test substance-treated groups using non-parametric Dunnett multiple comparison test (Analytical program version 1.0.2) with a two-sided significance level of 0.05.

Assay [3] concerns the target T2, human 5-HT4b receptor (Homo sapiens, UniProt Q13639).
T2 construct: expressed in transfected cells; host or cells: CHO cells (G418 selection)
Briefly: Test Example 2: Serotonin 4 (5-HT4) receptor agonist activity assay, cAMP HTRF in CHO cells (Table 97). The format is cell-based. The conditions noted are these: cAMP in CHO cells expressing human 5-HT4b receptor, mean value; for Emax: 0.25 h, intrinsic activity, maximal activity of 5-HT defined as 100%, read-out: IA (%); for EC50: concentration showing 50% of IA.

Some results are limits rather than exact numbers.

T2 sequence (Q13639 whole entry): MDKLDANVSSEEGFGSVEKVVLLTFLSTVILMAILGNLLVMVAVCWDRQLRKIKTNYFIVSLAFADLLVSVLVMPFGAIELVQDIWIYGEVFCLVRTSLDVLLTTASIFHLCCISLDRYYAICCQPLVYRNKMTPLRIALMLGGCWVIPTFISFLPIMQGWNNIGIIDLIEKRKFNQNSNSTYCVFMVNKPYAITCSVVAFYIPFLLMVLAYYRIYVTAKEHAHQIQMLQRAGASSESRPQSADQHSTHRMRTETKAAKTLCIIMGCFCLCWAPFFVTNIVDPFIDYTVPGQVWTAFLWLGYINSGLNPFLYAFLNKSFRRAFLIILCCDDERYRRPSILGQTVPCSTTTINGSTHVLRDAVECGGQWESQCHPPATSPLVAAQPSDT
T1 sequence (O70528 whole entry): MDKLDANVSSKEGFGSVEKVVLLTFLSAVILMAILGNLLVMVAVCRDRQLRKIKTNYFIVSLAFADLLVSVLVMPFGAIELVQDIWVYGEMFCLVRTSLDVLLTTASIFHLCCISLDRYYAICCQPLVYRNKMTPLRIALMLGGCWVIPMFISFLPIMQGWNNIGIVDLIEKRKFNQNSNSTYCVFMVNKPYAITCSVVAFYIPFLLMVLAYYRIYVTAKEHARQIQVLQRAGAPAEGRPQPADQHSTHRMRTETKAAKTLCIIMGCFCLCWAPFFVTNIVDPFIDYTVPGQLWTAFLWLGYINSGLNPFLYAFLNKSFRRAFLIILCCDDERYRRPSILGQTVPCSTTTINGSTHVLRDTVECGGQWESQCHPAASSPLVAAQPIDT

For the compound `CC(=O)N1CCC(N2CCC(c3nc(-n4nc(C(C)C)c5cccc(F)c54)no3)CC2)CC1.Cl` [Example 232, 1-(4-{3-[7-fluoro-3-(propan-2-yl)-1H-indazol-1-yl]-1,2,4-oxadiazol-5-yl}-1,4′-bipiperidin-1′-yl)ethanone hydrochloride], the 50% inhibitory concentration (IC50) – broadly, the concentration that gives 50% inhibition – in assay [1] was < 20 nM. Also, the “Alternation behavior (%)” value is recorded as 66.3^# % in assay [2] (compound 1 mg/kg), 63.0^# % in assay [2] (compound 3 mg/kg) and 53.6% in assay [2] (compound 10 mg/kg). Besides, in assay [3], the Emax turned out to be 95%. A half-maximal response in assay [3] (EC50) required 2.6 nM.

For `CC(C)c1nn(-c2noc(C3CCN(C4CCN(C(=O)CO)CC4)CC3)n2)c2c(F)cccc12` [Example 242, 1-(4-{3-[7-fluoro-3-(propan-2-yl)-1H-indazol-1-yl]-1,2,4-oxadiazol-5-yl}-1,4′-bipiperidin-1′-yl)-2-hydroxyethanone], the IC50 in assay [1] was < 20 nM. The “Alternation behavior (%)” value in assay [2] (compound 1 mg/kg) is recorded as 63.4^# %; in assay [2] (compound 3 mg/kg), 62.9^# %; in assay [2] (compound 10 mg/kg) it was 57.5%. Besides, the Emax in assay [3] amounted to 88%. The EC50 (in general, the concentration that produces a half-maximal response) in assay [3] was determined as 2.2 nM.
